Measured values reported in PMC9823097, “Dysregulation of PRMT5 in chronic lymphocytic leukemia promotes progression with high risk of Richter’s transformation” (Nature Communications, 2023).

Assays:
Mec-1 cells = assay: Cell growth curves over 12 days, Mec-1; assay type: cell-based; details: for anti-proliferative potency compared to PRT382: Mec-1
Method: (§1) Live cells/mL were counted on days 3, 6, 10, and 12. […] The split factor was calculated at indicated time points by dividing the counted cells/mL by 3E5. Cell growth was extrapolated over time by multiplying the subsequent cell count by the previous split factor. Cell growth is plotted as fold change relative to DMSO-treated cells.

HG3 cells = assay: Cell growth curves over 12 days, HG3; assay type: cell-based; details: for anti-proliferative potency compared to PRT382: HG3
Method: as §1

In the case of `Nc1ncnc2c1ccn2[C@@H]1O[C@H]([C@H](O)c2ccccc2)[C@@H](O)[C@H]1O` [LLY-283], the “Rep 1 Live Cells [Fold Change]” value (Mec-1 cells; Mec-1, 1 nM, day 0) is reported as 1 Fold Change, the “Rep 2 Live Cells [Fold Change]” value (Mec-1 cells; Mec-1, 1 nM, day 0) is reported as 1 Fold Change and the “Rep 1 Live Cells [Fold Change]” value (Mec-1 cells; Mec-1, 1 nM, day 3) is reported as 7.4 Fold Change. For the same molecule, the “Rep 2 Live Cells [Fold Change]” value (Mec-1 cells; Mec-1, 1 nM, day 3) was 6.83 Fold Change, the “Rep 1 Live Cells [Fold Change]” value (Mec-1 cells; Mec-1, 1 nM, day 6) was 50.6 Fold Change and the “Rep 2 Live Cells [Fold Change]” value (Mec-1 cells; Mec-1, 1 nM, day 6) was 41.9 Fold Change. For the same molecule, the “Rep 1 Live Cells [Fold Change]” value (Mec-1 cells; Mec-1, 1 nM, day 10) was 397 Fold Change, the “Rep 2 Live Cells [Fold Change]” value (Mec-1 cells; Mec-1, 1 nM, day 10) was 446 Fold Change and the “Rep 1 Live Cells [Fold Change]” value (Mec-1 cells; Mec-1, 1 nM, day 12) was 1480 Fold Change. The “Rep 2 Live Cells [Fold Change]” value (Mec-1 cells; Mec-1, 1 nM, day 12) was 1580 Fold Change, the “Rep 1 Live Cells [Fold Change]” value (Mec-1 cells; Mec-1, 10 nM, day 0) was 1 Fold Change and the “Rep 2 Live Cells [Fold Change]” value (Mec-1 cells; Mec-1, 10 nM, day 0) was 1 Fold Change. For the same molecule, the “Rep 1 Live Cells [Fold Change]” value (Mec-1 cells; Mec-1, 10 nM, day 3) was 6.77 Fold Change, the “Rep 2 Live Cells [Fold Change]” value (Mec-1 cells; Mec-1, 10 nM, day 3) was 6.33 Fold Change and the “Rep 1 Live Cells [Fold Change]” value (Mec-1 cells; Mec-1, 10 nM, day 6) was 30.7 Fold Change. For the same molecule, the “Rep 2 Live Cells [Fold Change]” value (Mec-1 cells; Mec-1, 10 nM, day 6) was 34 Fold Change, the “Rep 1 Live Cells [Fold Change]” value (Mec-1 cells; Mec-1, 10 nM, day 10) was 156 Fold Change and the “Rep 2 Live Cells [Fold Change]” value (Mec-1 cells; Mec-1, 10 nM, day 10) was 260 Fold Change. For the same molecule, the “Rep 1 Live Cells [Fold Change]” value (Mec-1 cells; Mec-1, 10 nM, day 12) was 568 Fold Change, the “Rep 2 Live Cells [Fold Change]” value (Mec-1 cells; Mec-1, 10 nM, day 12) was 278 Fold Change and the “Rep 1 Live Cells [Fold Change]” value (Mec-1 cells; Mec-1, 100 nM, day 0) was 1 Fold Change. For the same molecule, the “Rep 2 Live Cells [Fold Change]” value (Mec-1 cells; Mec-1, 100 nM, day 0) was 1 Fold Change, the “Rep 1 Live Cells [Fold Change]” value (Mec-1 cells; Mec-1, 100 nM, day 3) was 4.6 Fold Change and the “Rep 2 Live Cells [Fold Change]” value (Mec-1 cells; Mec-1, 100 nM, day 3) was 4.47 Fold Change. The “Rep 1 Live Cells [Fold Change]” value (Mec-1 cells; Mec-1, 100 nM, day 6) was 6.46 Fold Change, the “Rep 2 Live Cells [Fold Change]” value (Mec-1 cells; Mec-1, 100 nM, day 6) was 5.94 Fold Change and the “Rep 1 Live Cells [Fold Change]” value (Mec-1 cells; Mec-1, 100 nM, day 10) was 4.1 Fold Change. For the same molecule, the “Rep 2 Live Cells [Fold Change]” value (Mec-1 cells; Mec-1, 100 nM, day 10) was 4.16 Fold Change, the “Rep 1 Live Cells [Fold Change]” value (Mec-1 cells; Mec-1, 100 nM, day 12) was 2.4 Fold Change and the “Rep 2 Live Cells [Fold Change]” value (Mec-1 cells; Mec-1, 100 nM, day 12) was 2.8 Fold Change. The “Rep 1 Live Cells [Fold Change]” value (Mec-1 cells; Mec-1, 1 µM, day 0) was 1 Fold Change, the “Rep 2 Live Cells [Fold Change]” value (Mec-1 cells; Mec-1, 1 µM, day 0) was 1 Fold Change and the “Rep 1 Live Cells [Fold Change]” value (Mec-1 cells; Mec-1, 1 µM, day 3) was 3.67 Fold Change. For the same molecule, the “Rep 2 Live Cells [Fold Change]” value (Mec-1 cells; Mec-1, 1 µM, day 3) was 4.57 Fold Change, the “Rep 1 Live Cells [Fold Change]” value (Mec-1 cells; Mec-1, 1 µM, day 6) was 4.12 Fold Change and the “Rep 2 Live Cells [Fold Change]” value (Mec-1 cells; Mec-1, 1 µM, day 6) was 5.92 Fold Change. The “Rep 1 Live Cells [Fold Change]” value (Mec-1 cells; Mec-1, 1 µM, day 10) was 2.43 Fold Change, the “Rep 2 Live Cells [Fold Change]” value (Mec-1 cells; Mec-1, 1 µM, day 10) was 2.13 Fold Change and the “Rep 1 Live Cells [Fold Change]” value (Mec-1 cells; Mec-1, 1 µM, day 12) was 1.89 Fold Change. The “Rep 2 Live Cells [Fold Change]” value (Mec-1 cells; Mec-1, 1 µM, day 12) was 1.46 Fold Change, the “anti-proliferative potency compared to PRT382” value (Mec-1 cells; high doses (1µM)) was “similar” and the “anti-proliferative potency compared to PRT382” value (Mec-1 cells; lower doses (10nM, 100nM)) was “more potent”. For the same molecule, the “Rep 1 Live Cells [Fold Change]” value (HG3 cells; HG3, 1 nM, day 0) was 1 Fold Change, the “Rep 2 Live Cells [Fold Change]” value (HG3 cells; HG3, 1 nM, day 0) was 1 Fold Change and the “Rep 1 Live Cells [Fold Change]” value (HG3 cells; HG3, 1 nM, day 3) was 6.4 Fold Change. For the same molecule, the “Rep 2 Live Cells [Fold Change]” value (HG3 cells; HG3, 1 nM, day 3) was 6.4 Fold Change, the “Rep 1 Live Cells [Fold Change]” value (HG3 cells; HG3, 1 nM, day 6) was 45.44 Fold Change and the “Rep 2 Live Cells [Fold Change]” value (HG3 cells; HG3, 1 nM, day 6) was 39.4667 Fold Change. The “Rep 1 Live Cells [Fold Change]” value (HG3 cells; HG3, 1 nM, day 10) was 270.368 Fold Change, the “Rep 2 Live Cells [Fold Change]” value (HG3 cells; HG3, 1 nM, day 10) was 299.947 Fold Change and the “Rep 1 Live Cells [Fold Change]” value (HG3 cells; HG3, 1 nM, day 12) was 973.325 Fold Change. For the same molecule, the “Rep 2 Live Cells [Fold Change]” value (HG3 cells; HG3, 1 nM, day 12) was 1379.76 Fold Change, the “Rep 1 Live Cells [Fold Change]” value (HG3 cells; HG3, 10 nM, day 0) was 1 Fold Change and the “Rep 2 Live Cells [Fold Change]” value (HG3 cells; HG3, 10 nM, day 0) was 1 Fold Change. The “Rep 1 Live Cells [Fold Change]” value (HG3 cells; HG3, 10 nM, day 3) was 6.167 Fold Change, the “Rep 2 Live Cells [Fold Change]” value (HG3 cells; HG3, 10 nM, day 3) was 6.2 Fold Change and the “Rep 1 Live Cells [Fold Change]” value (HG3 cells; HG3, 10 nM, day 6) was 34.3278 Fold Change. The “Rep 2 Live Cells [Fold Change]” value (HG3 cells; HG3, 10 nM, day 6) was 39.4733 Fold Change, the “Rep 1 Live Cells [Fold Change]” value (HG3 cells; HG3, 10 nM, day 10) was 260.891 Fold Change and the “Rep 2 Live Cells [Fold Change]” value (HG3 cells; HG3, 10 nM, day 10) was 335.523 Fold Change. For the same molecule, the “Rep 1 Live Cells [Fold Change]” value (HG3 cells; HG3, 10 nM, day 12) was 755.715 Fold Change, the “Rep 2 Live Cells [Fold Change]” value (HG3 cells; HG3, 10 nM, day 12) was 1174.33 Fold Change and the “Rep 1 Live Cells [Fold Change]” value (HG3 cells; HG3, 100 nM, day 0) was 1 Fold Change. For the same molecule, the “Rep 2 Live Cells [Fold Change]” value (HG3 cells; HG3, 100 nM, day 0) was 1 Fold Change, the “Rep 1 Live Cells [Fold Change]” value (HG3 cells; HG3, 100 nM, day 3) was 5.133 Fold Change and the “Rep 2 Live Cells [Fold Change]” value (HG3 cells; HG3, 100 nM, day 3) was 5.6 Fold Change. For the same molecule, the “Rep 1 Live Cells [Fold Change]” value (HG3 cells; HG3, 100 nM, day 6) was 5.048 Fold Change, the “Rep 2 Live Cells [Fold Change]” value (HG3 cells; HG3, 100 nM, day 6) was 7.691 Fold Change and the “Rep 1 Live Cells [Fold Change]” value (HG3 cells; HG3, 100 nM, day 10) was 6.991 Fold Change. The “Rep 2 Live Cells [Fold Change]” value (HG3 cells; HG3, 100 nM, day 10) was 12.0359 Fold Change, the “Rep 1 Live Cells [Fold Change]” value (HG3 cells; HG3, 100 nM, day 12) was 6.651 Fold Change and the “Rep 2 Live Cells [Fold Change]” value (HG3 cells; HG3, 100 nM, day 12) was 12.2598 Fold Change. The “Rep 1 Live Cells [Fold Change]” value (HG3 cells; HG3, 1 µM, day 0) was 1 Fold Change, the “Rep 2 Live Cells [Fold Change]” value (HG3 cells; HG3, 1 µM, day 0) was 1 Fold Change and the “Rep 1 Live Cells [Fold Change]” value (HG3 cells; HG3, 1 µM, day 3) was 4.533 Fold Change. The “Rep 2 Live Cells [Fold Change]” value (HG3 cells; HG3, 1 µM, day 3) was 5.967 Fold Change, the “Rep 1 Live Cells [Fold Change]” value (HG3 cells; HG3, 1 µM, day 6) was 3.083 Fold Change and the “Rep 2 Live Cells [Fold Change]” value (HG3 cells; HG3, 1 µM, day 6) was 6.961 Fold Change. For the same molecule, the “Rep 1 Live Cells [Fold Change]” value (HG3 cells; HG3, 1 µM, day 10) was 2.4 Fold Change, the “Rep 2 Live Cells [Fold Change]” value (HG3 cells; HG3, 1 µM, day 10) was 7.031 Fold Change and the “Rep 1 Live Cells [Fold Change]” value (HG3 cells; HG3, 1 µM, day 12) was 1.832 Fold Change. The “Rep 2 Live Cells [Fold Change]” value (HG3 cells; HG3, 1 µM, day 12) was 4.873 Fold Change, the “anti-proliferative potency compared to PRT382” value (HG3 cells; high doses (1µM)) was “similar” and the “anti-proliferative potency compared to PRT382” value (HG3 cells; lower doses (10nM, 100nM)) was “more potent”.
